Laboratory results: patent US11560385B2, “Proteasome activity enhancing compounds” (Proteostasis Therapeutics, Inc., priority 2018, dated 2023)

Each compound was assayed against USP14 (Homo sapiens (Human), UniProt P54578) (assay: Usp14 inhibition assay (Example 57B, B-series compounds)). Settings: IC50 class; average value from a minimum of two experimental determinations.
USP14, sequence (P54578 whole entry, looked up): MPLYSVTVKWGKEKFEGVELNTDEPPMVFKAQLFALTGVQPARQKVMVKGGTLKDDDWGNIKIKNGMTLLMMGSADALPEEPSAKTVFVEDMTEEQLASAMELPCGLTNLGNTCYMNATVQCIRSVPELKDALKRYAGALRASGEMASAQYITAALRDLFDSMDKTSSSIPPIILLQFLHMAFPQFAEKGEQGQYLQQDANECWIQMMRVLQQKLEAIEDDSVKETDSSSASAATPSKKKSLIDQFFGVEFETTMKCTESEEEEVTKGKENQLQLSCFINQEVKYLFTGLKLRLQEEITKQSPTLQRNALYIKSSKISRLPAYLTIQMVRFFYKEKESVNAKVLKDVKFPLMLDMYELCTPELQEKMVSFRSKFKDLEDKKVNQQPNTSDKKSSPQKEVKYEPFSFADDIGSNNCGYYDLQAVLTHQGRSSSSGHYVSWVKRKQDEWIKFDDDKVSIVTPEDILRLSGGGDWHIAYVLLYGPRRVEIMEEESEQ
Type: biochemical
Text: Example 57B: Usp14 Inhibition Assay
The IC50 values in the Table below represent the average value from a minimum of two experimental determinations.
`Cc1cc(C(=O)CN2[C@H]3CCC[C@@H]2[C@H](O)C3)c(C)n1-c1ccc(C#N)cc1` (racemic) [Example 82B, (±)-4-(3-(2-((1S,5R,6R)-6-Hydroxy-8-azabicyclo[3.2.1]octan-8-yl)acetyl)-2,5-dimethyl-1H-pyrrol-1-yl)benzonitrile] was tested, and the IC50 was 50 to 500 nM.
In the case of `Cc1cc(C(=O)CN2C3CCC2[C@@H](O)C3)c(C)n1-c1ccc(C#N)c(F)c1` (mixture of isomers) [Example 90B, (±)-2-Fluoro-4-(3-(2-((2R)-2-hydroxy-7-azabicyclo[2.2.1]heptan-7-yl)acetyl)-2,5-dimethyl-1H-pyrrol-1-yl)benzonitrile], the IC50 is reported as under 50 nM.
Compound `Cc1cc(C(=O)CN2C3CCC2[C@@H](O)C3)c(C)n1-c1cc(F)c(Cl)c(F)c1` (mixture of isomers) [Example 118B, (±)-1-(1-(4-Chloro-3,5-difluorophenyl)-2,5-dimethyl-1H-pyrrol-3-yl)-2-((2R)-2-hydroxy-7-azabicyclo[2.2.1]heptan-7-yl)ethan-1-one] has an IC50 of over 500 nM.
`Cc1c(F)c(C(=O)CN2[C@@H]3C=C(C(F)(F)F)[C@H]2CC3)c(C)n1-c1ccc(C#N)cc1` (racemic) [Example 149B, (±)-4-(3-Fluoro-2,5-dimethyl-4-(2-((1R,4S)-2-(trifluoromethyl)-7-azabicyclo[2.2.1]hept-2-en-7-yl)acetyl)-1H-pyrrol-1-yl)benzonitrile] showed an IC50 of 50 to 500 nM.
For `Cc1c(C(=O)CN2C3CCC2[C@@H](O)C3)cc(C2CCCC2)n1-c1ccc(C#N)cc1` (mixture of isomers) [Example 110B, (±)-4-(5-Cyclopentyl-3-(2-((2R)-2-hydroxy-7-azabicyclo[2.2.1]heptan-7-yl)acetyl)-2-methyl-1H-pyrrol-1-yl)benzonitrile], the IC50 was 50 to 500 nM.
`Cc1c(C(=O)CN2[C@@H]3CC[C@H]2[C@@H](C)C3)cc(CC2COC2)n1-c1ccc(C#N)cc1` (racemic) [Example 53B, (±)-4-(2-Methyl-3-(2-((1R,2R,4S)-2-methyl-7-azabicyclo[2.2.1]heptan-7-yl)acetyl)-5-(oxetan-3-ylmethyl)-1H-pyrrol-1-yl)benzonitrile] was tested, and the IC50 was under 50 nM.
With `Cc1c(C(=O)CN2C3CCC2[C@@H](O)C3)cc(C#CC2COC2)n1-c1ccc(C#N)cc1` (mixture of isomers) [Example 57B, (±)-4-(3-(2-((2R)-2-Hydroxy-7-azabicyclo[2.2.1]heptan-7-yl)acetyl)-2-methyl-5-(oxetan-3-ylethynyl)-1H-pyrrol-1-yl)benzonitrile] the IC50 was 50 to 500 nM.
In the case of `Cc1c(C(=O)CN2[C@@H]3CC[C@H]2[C@@H](O)C3)cc(-c2nccs2)n1-c1ccc(C#N)cc1` (racemic) [Example 146B, (±)-4-(3-(2-((1R,2R,4S)-2-Hydroxy-7-azabicyclo[2.2.1]heptan-7-yl)acetyl)-2-methyl-5-(thiazol-2-yl)-1H-pyrrol-1-yl)benzonitrile], the IC50 is reported as over 500 nM.
`Cc1cc(C(=O)CN2C3CCC2[C@@H](O)C3)c(C)n1-c1ccc(Cl)c(F)c1` (mixture of isomers) [Example 117B, (±)-1-(1-(4-Chloro-3-fluorophenyl)-2,5-dimethyl-1H-pyrrol-3-yl)-2-((2R)-2-hydroxy-7-azabicyclo[2.2.1]heptan-7-yl)ethan-1-one] gave an IC50 of 50 to 500 nM.
`Cc1cc(C(=O)CN2[C@@H]3CC[C@H]2[C@H]2CCO[C@H]23)c(C)n1-c1ccc(C#N)cc1` (racemic) [Example 139B, (±)-4-(2,5-Dimethyl-3-(2-((3aR,4S,7R,7aR)-octahydro-4,7-epiminobenzofuran-8-yl)acetyl)-1H-pyrrol-1-yl)benzonitrile] showed an IC50 of over 500 nM.
In the case of `Cc1c(C(=O)CN2C3CCC2[C@@H](O)C3)cc(CC2COC2)n1-c1ccc(C#N)cc1` (mixture of isomers) [Example 39B, (±)-4-(3-(2-((2R)-2-Hydroxy-7-azabicyclo[2.2.1]heptan-7-yl)acetyl)-2-methyl-5-(oxetan-3-ylmethyl)-1H-pyrrol-1-yl)benzonitrile], the IC50 is reported as under 50 nM.
With `Cc1c(C(=O)CN2[C@@H]3CC[C@H]2[C@@H](O)C3)cc(CCCCC2CCOCC2)n1-c1ccc(C#N)cc1` (racemic) [Example 14B, (±)-4-(3-(2-((1S,2S,4R)-2-Hydroxy-7-azabicyclo[2.2.1]heptan-7-yl)acetyl)-2-methyl-5-(4-(tetrahydro-2H-pyran-4-yl)butyl)-1H-pyrrol-1-yl)benzonitrile] the IC50 was under 50 nM.
With `Cc1c(C(=O)CN2[C@@H]3CC[C@H]2[C@@H](O)C3)cc(CCCCC2COC2)n1-c1ccc(C#N)cc1` (racemic) [Example 23B, (±)-4-(3-(2-((1S,2S,4R)-2-Hydroxy-7-azabicyclo[2.2.1]heptan-7-yl)acetyl)-2-methyl-5-(4-(oxetan-3-yl)butyl)-1H-pyrrol-1-yl)benzonitrile] the IC50 was under 50 nM.
Compound `Cc1cc(C(=O)CN2[C@@H]3CC[C@H]2[C@@H](C)[C@@H]3C)c(C)n1-c1ccc(C#N)cc1` (racemic) [Example 140B, (±)-4-(3-(2-((1R,2R,3R,4S)-2,3-Dimethyl-7-azabicyclo[2.2.1]heptan-7-yl)acetyl)-2,5-dimethyl-1H-pyrrol-1-yl)benzonitrile] has an IC50 of 50 to 500 nM.
In the case of `Cc1c(F)c(C(=O)CN2[C@@H]3CC[C@H]2[C@@H](C(F)(F)F)C3)c(C)n1-c1ccc(C#N)cc1` (racemic) [Example 103B, (±)-4-(3-Fluoro-2,5-dimethyl-4-(2-((1R,2R,4S)-2-(trifluoromethyl)-7-azabicyclo[2.2.1]heptan-7-yl)acetyl)-1H-pyrrol-1-yl)benzonitrile], the IC50 is reported as over 500 nM.
For `Cc1cc(C(=O)CN2[C@@H]3CC[C@H]2[C@H](C)C3)c(C)n1-c1ccc(C#N)cc1` (racemic) [Example 122B, (±)-4-(2,5-Dimethyl-3-(2-((1S,2R,4R)-2-methyl-7-azabicyclo[2.2.1]heptan-7-yl)acetyl)-1H-pyrrol-1-yl)benzonitrile], the IC50 was 50 to 500 nM.
With `Cc1c(CCCCS(C)(=O)=O)c(C(=O)CN2C3CCC2[C@@H](O)C3)c(C)n1-c1ccc(C#N)cc1` (mixture of isomers) [Example 19B, (±)-4-(3-(2-((2R)-2-Hydroxy-7-azabicyclo[2.2.1]heptan-7-yl)acetyl)-2,5-dimethyl-4-(4-(methylsulfonyl)butyl)-1H-pyrrol-1-yl)benzonitrile] the IC50 was over 500 nM.
`Cc1cc(C(=O)CN2C3CC4CC2CC(O)(C4)C3)c(C)n1-c1ccc(C#N)cc1` [Example 81B, 4-(3-(2-((5s,7s)-5-Hydroxy-2-azaadamantan-2-yl)acetyl)-2,5-dimethyl-1H-pyrrol-1-yl)benzonitrile] gave an IC50 of 50 to 500 nM.
`Cc1c(C(=O)CN2C3CCC2[C@@H](O)C3)cc(CCCC2CC(C)(C)OC2=O)n1-c1ccc(C#N)cc1` (mixture of isomers) [Example 51B, (±)-4-(5-(3-(5,5-Dimethyl-2-oxotetrahydrofuran-3-yl)propyl)-3-(2-((1R,2R,4S)-2-hydroxy-7-azabicyclo[2.2.1]heptan-7-yl)acetyl)-2-methyl-1H-pyrrol-1-yl)benzonitrile] gave an IC50 of under 50 nM.
`Cc1c(C(=O)CN2C3CC4CC2CC(C3)O4)cc(C#CCCC#N)n1-c1ccc(C#N)cc1` [Example 21B, 4-(3-(2-((1r,3r,5r,7r)-2-Oxa-6-azaadamantan-6-yl)acetyl)-5-(4-cyanobut-1-yn-1-yl)-2-methyl-1H-pyrrol-1-yl)benzonitrile] gave an IC50 of 50 to 500 nM.
Compound `CSCCCCCc1cc(C(=O)CN2[C@@H]3CC[C@H]2[C@@H](O)C3)c(C)n1-c1ccc(C#N)cc1` (racemic) [Example 38B, (±)-4-(3-(2-((1R,2R,4S)-2-Hydroxy-7-azabicyclo[2.2.1]heptan-7-yl)acetyl)-2-methyl-5-(5-(methylthio)pentyl)-1H-pyrrol-1-yl)benzonitrile] has an IC50 of under 50 nM.
In the case of `Cc1cc(C(=O)CN2[C@@H]3CC[C@@H]2CC(O)C3)c(C)n1-c1ccc(C#N)cc1` (stereo partly drawn) [Example 67B, 4-(3-(2-((1R,3s,5S)-3-hydroxy-8-azabicyclo[3.2.1]octan-8-yl)acetyl)-2,5-dimethyl-1H-pyrrol-1-yl)benzonitrile], the IC50 is reported as 50 to 500 nM.
`Cc1cc(C(=O)CN2[C@@H]3CC[C@H]2[C@@H](OC(F)(F)F)C3)c(C)n1-c1ccc(C#N)cc1` (racemic) [Example 105B, (±)-4-(2,5-Dimethyl-3-(2-((1R,2R,4S)-2-(trifluoromethoxy)-7-azabicyclo[2.2.1]heptan-7-yl)acetyl)-1H-pyrrol-1-yl)benzonitrile] showed an IC50 of over 500 nM.
Work on `Cc1cc(C(=O)CN2C3CCC2[C@@H]2COC[C@H]32)c(C)n1-c1ccc(C#N)cc1` (racemic) [Example 106B, (±)-4-(2,5-Dimethyl-3-(2-((3aR,4R,7S,7aS)-octahydro-4,7-epiminoisobenzofuran-8-yl)acetyl)-1H-pyrrol-1-yl)benzonitrile] yielded an IC50 of 50 to 500 nM.
`COC1C[C@H]2CC[C@H](C1)N2CC(=O)c1cc(C)n(-c2ccc(C#N)cc2)c1C` (stereo partly drawn) [Example 88B, 4-(3-(2-((1R,3r,5S)-3-Methoxy-8-azabicyclo[3.2.1]octan-8-yl)acetyl)-2,5-dimethyl-1H-pyrrol-1-yl)benzonitrile] showed an IC50 of 50 to 500 nM.
For `Cc1cc(C(=O)CN2C3CCCC2CCC3)c(C)n1-c1ccc(C#N)cc1` [Example 87B, 4-(3-(2-((1s,5s)-9-Azabicyclo[3.3.1]nonan-9-yl)acetyl)-2,5-dimethyl-1H-pyrrol-1-yl)benzonitrile], the IC50 was 50 to 500 nM.
Work on `Cc1c(F)c(C(=O)CN2C3CCC2CC3)c(C)n1-c1ccc(C#N)cc1` [Example 104B, 4-(3-(2-((1s,4s)-7-Azabicyclo[2.2.1]heptan-7-yl)acetyl)-4-fluoro-2,5-dimethyl-1H-pyrrol-1-yl)benzonitrile] yielded an IC50 of 50 to 500 nM.
In the case of `Cc1c(C(=O)CN2[C@H]3CC[C@@H]2[C@@H](O)C3)cc(CC23CC(C2)C3)n1-c1ccc(C#N)cc1` (racemic) [Example 158B, (±)-4-(5-(Bicyclo[1.1.1]pentan-1-ylmethyl)-3-(2-((1R,2S,4S)-2-hydroxy-7-azabicyclo[2.2.1]heptan-7-yl)acetyl)-2-methyl-1H-pyrrol-1-yl)benzonitrile], the IC50 is reported as over 500 nM.
`Cc1nc(Cc2c(Cl)c(C(=O)CN3C4CCC3[C@@H](O)C4)c(C)n2-c2ccc(C#N)cc2)cs1` (stereo partly drawn) [Example 128B] showed an IC50 of under 50 nM.
With `Cc1c(C(=O)CN2C3CCC2[C@@H](O)C3)cc(/C=C/CN2C(=O)c3ccccc3C2=O)n1-c1ccc(C#N)cc1` (mixture of isomers) [Example 153B, (±)-4-(5-0E)-3-(1,3-Dioxoisoindolin-2-yl)prop-1-en-1-yl)-3-(2-((1R,2R,4S)-2-hydroxy-7-azabicyclo[2.2.1]heptan-7-yl)acetyl)-2-methyl-1H-pyrrol-1-yl)benzonitrile] the IC50 was under 50 nM.
